Laboratory results taken from patent US12208089B2, “Adjusting expression level of a gene encoding a Sirtuin protein by treating a human subject with a nitroxide” (priority 2021, dated 2025).

Test system: SIRT2
Experiment: Effects of Tempol on gene expression in cardiac tissue of mice, chip-based microarray
Assay type: in vivo
Conditions: 5 mg/g of food from 14 to 31 months after birth
Method: To assess the effects of Tempol on gene expression, Tempol was administered to experimental mice at a dose of 5 mg/g of food from 14 months to 31 months after birth. Mice receiving the same food without the addition of Tempol were used as a negative control. At the age of 31 months, the experimental animals were sacrificed and the hearts were surgically removed. The expression of a broad spectrum of genes in the cardiac tissue was assessed using chip-based microarray technology. Such chips are well known in the art and are widely used to assess gene expression.

Structure (SMILES): CC1(C)CC(O)CC(C)(C)N1[O] [Tempol, 4-hydroxy-2,2,6,6-tetramethylpiperidine-1-oxyl]
- Fold change (SIRT2 expression in cardiac tissue after Tempol administration) (hearts at 31 months, vs. same food without Tempol, P-value 0.00): 1.16
- SIRT2 expression in the cardiac tissue (microarray, vs. negative control): statistically significant increase in expression
